Common to all, as to assay type: physicochemical
Data set [1] can be described thus: Study of particle size distribution (PSD, laser particle size analytic meter). The conditions noted are these: for D10 / D50 (median size) / D90: volume distribution; for D10 / D50 (median size) / D90 / MV (average particle size as calculated in terms of the volume): dispersion medium Isopar G; for MV (average particle size as calculated in terms of the volume): wet process; for Particle size distribution (PSD pattern): from PSD patterns FIG. 26-28. The protocol: The particle size distribution (PSD) results as described in the invention were collected on a S3500-type laser particle size analytic meter as produced by Microtrac Company. The Microtrac S3500 is equipped with a SDC (Sample Delivery Controller) feeding system. The test was conducted via a wet process, and the dispersion medium as used in the test was Isopar G. The laser particle size analytic meter has the following parameters: [table]

Data set [2] can be described thus: Study of moisture absorption, dynamic vapor sorption (DVS) test. The following applies: for Moisture absorption characteristic according to Chinese Pharmacopoeia (2015): 25° C.±1° C.; for Moisture absorption characteristic according to Chinese Pharmacopoeia (2015) / Weight increase of 80% relative humidity: 80% relative humidity; for Weight increase of 80% relative humidity / Weight increase of 95% relative humidity: DVS, 25° C. The protocol: The dynamic vapor sorption (DVS) pattern as described in the invention was collected on an intrinsic dynamic vapor sorption meter as produced by Surface Measurement Systems Ltd. The dynamic vapor sorption method has the following parameters: Temperature: 25° C., Loading gas, flowing speed: N2, 200 ml/min, Variation in mass per time: 0.002%/minute, Relative humidity range: 0% RH-95% RH. […] The obtained results were shown in Table 13: With regard to the descriptions for the moisture absorption characteristic and the definition for the increased weight of moisture absorption (Guidelines for the Moisture Absorption Tests of Drugs in the Appendix of Chinese Pharmacopoeia (2015), Experimental conditions: 25° C.±1° C., 80% relative humidity): […]

The nature of data set [3]: Study of long-term and acceleration stabilities (XRPD). The conditions noted are these: both 25° C./60% RH and 40° C./75% RH, 3 months.
Data set [4] in a line: Study of dynamic solubility (saturated solution, HPLC). The following applies: for Solubility assessment: FaSSIF, FeSSIF, SGF and water; for solubility at 1 h / solubility at 24 h / solubility at 4 h: thermodynamic from solid. From the text: The high performance liquid chromatography (HPLC) data were collected in an Agilent 1260, and the used detector was a diode array detector (DAD). The HPLC method as described in the invention has the following parameters: […]

Data set [5] in a line: Study of mechanical stability (ground by hand for 5 minutes, XRPD). The following applies: ground for 5 minutes by hand in a mortar.
A short description of data set [6]: Polarizing microscope (PLM) patterns. The following applies: from PLM patterns FIG. 29-31.

Converted amounts (≈) assume the structure as drawn.

As for `N#Cc1ccc(Oc2ccc3c(c2)COB3O)cc1` [Crystal form III, 4-[(1,3-dihydro-1-hydroxyl-2,1-benzoxaborolane-5-yl)oxy]benzonitrile], in data set [1], the D10 amounted to 21.68 μm. For the same compound, the “D50 (median size)” value in data set [1] turned out to be 163.0 μm. Also, the D90 in data set [1] came to 903.1 μm. Besides, in data set [1], the “MV (average particle size as calculated in terms of the volume)” value was 289.0 μm. Further, the “Moisture absorption characteristic according to Chinese Pharmacopoeia (2015)” value in data set [2] is listed as “almost have no moisture absorption”. Also, the “Weight increase of 80% relative humidity” value in data set [2] worked out at 0.09%. Besides, the “Weight increase of 95% relative humidity” value in data set [2] was found to be 0.15%. Besides, the “Stability of the crystal form on storage” value in data set [3] is “maintain their stability”. Further, the Solubility in data set [4] (FaSSIF (pH = 6.5), 1 h) came to 8 µg/mL (≈ 31.9 µM); in data set [4] (FaSSIF (pH = 6.5), 4 h) it was 10 µg/mL (≈ 39.8 µM); in data set [4] (FaSSIF (pH = 6.5), 24 h) it was 12 µg/mL (≈ 47.8 µM); in data set [4] (FeSSIF (pH = 5.0), 1 h), 25 µg/mL (≈ 99.6 µM); in data set [4] (FeSSIF (pH = 5.0), 4 h), 67 µg/mL (≈ 267 µM); in data set [4] (FeSSIF (pH = 5.0), 24 h) it was 74 µg/mL (≈ 295 µM). In addition, the Solubility in data set [4] (H2O, 1 h) was found to be 5 µg/mL (≈ 19.9 µM); in data set [4] (H2O, 4 h) it was 4 µg/mL (≈ 15.9 µM); in data set [4] (H2O, 24 h), 6 µg/mL (≈ 23.9 µM); in data set [4] (SGF (pH = 1.8), 1 h), 33 µg/mL (≈ 131 µM); in data set [4] (SGF (pH = 1.8), 4 h), 34 µg/mL (≈ 135 µM); in data set [4] (SGF (pH = 1.8), 24 h), 40 µg/mL (≈ 159 µM). Also, in data set [4], the Solubility assessment entry is reported as “in line with medicinal requirements”.

Take `N#Cc1ccc(Oc2ccc3c(c2)COB3O)cc1` [Crystal form I, 4-[(1,3-dihydro-1-hydroxyl-2,1-benzoxaborolane-5-yl)oxy]benzonitrile]: the “Particle size distribution (PSD pattern)” value in data set [1] was “homogeneous”. Moreover, the D10 in data set [1] came to 1.69 μm. The “D50 (median size)” value in data set [1] was found to be 5.52 μm. This compound also registered a D90 in data set [1] of 20.35 μm. The “MV (average particle size as calculated in terms of the volume)” value in data set [1] was 9.62 μm. In addition, the Final crystal form entry in data set [5] is given as “Crystal form I”; in data set [5] (listed as crystal form I), “not changed”. The “Moisture absorption characteristic according to Chinese Pharmacopoeia (2015)” value in data set [2] is reported as “almost have no moisture absorption”. Besides, the “Weight increase of 80% relative humidity” value in data set [2] worked out at 0.14%. Moreover, in data set [2], the “Weight increase of 95% relative humidity” value turned out to be 0.32%. For the same compound, the “Particle sizes of the particles (PLM pattern)” value (“Particle sizes of the particles” below) in data set [6] was “homogeneous”. In addition, the “Stability of the crystal form on storage” value in data set [3] was “maintain their stability”. The Solubility in data set [4] (FaSSIF (pH = 6.5), 4 h) stood at 7 µg/mL (≈ 27.9 µM); in data set [4] (FeSSIF (pH = 5.0), 1 h) it was 44 µg/mL (≈ 175 µM); in data set [4] (H2O, 4 h) it was 5 µg/mL (≈ 19.9 µM); in data set [4] (SGF (pH = 1.8), 1 h), 11 µg/mL (≈ 43.8 µM); in data set [4] (SGF (pH = 1.8), 24 h) it was 38 µg/mL (≈ 151 µM). Moreover, the Solubility assessment result in data set [4] was “in line with medicinal requirements”. In addition, the solubility at 1 h was 6 µg/mL (≈ 23.9 µM) in data set [4] (fasted state simulated intestinal fluid (FaSSIF), pH 6.5, fassif, FaSSIF (pH = 6.5), 1 h) and 4 µg/mL (≈ 15.9 µM) in data set [4] (water, H2O, 1 h). Besides, the solubility at 24 h is 12 µg/mL (≈ 47.8 µM) in data set [4] (fasted state simulated intestinal fluid (FaSSIF), pH 6.5, fassif, FaSSIF (pH = 6.5), 24 h); 59 µg/mL (≈ 235 µM) in data set [4] (fed state simulated intestinal fluid (FeSSIF), pH 5, fessif, FeSSIF (pH = 5.0), 24 h); 6 µg/mL (≈ 23.9 µM) in data set [4] (water, H2O, 24 h). In addition, the solubility at 4 h is 59 µg/mL (≈ 235 µM) in data set [4] (fed state simulated intestinal fluid (FeSSIF), pH 5, fessif, FeSSIF (pH = 5.0), 4 h) and 37 µg/mL (≈ 147 µM) in data set [4] (simulated gastric fluid (SGF), pH 1.8, simulated gastric fluid, SGF (pH = 1.8), 4 h).

For the compound `N#Cc1ccc(Oc2ccc3c(c2)COB3O)cc1` [Crystal form IV, 4-[(1,3-dihydro-1-hydroxyl-2,1-benzoxaborolane-5-yl)oxy]benzonitrile], the “Particle size distribution (PSD pattern)” value in data set [1] is on record as “homogeneous”. In data set [1], this compound displayed a D10 of 13.43 μm. Also, in data set [1], the “D50 (median size)” value stood at 33.68 μm. For the same compound, the D90 in data set [1] was found to be 99.36 μm. Further, in data set [1], the “MV (average particle size as calculated in terms of the volume)” value is recorded as 52.95 μm. For the same compound, the Final crystal form entry in data set [5] is “Crystal form IV”; in data set [5] (listed as crystal form IV) it was “not changed”. In data set [2] (listed as crystal IV), the “Moisture absorption characteristic according to Chinese Pharmacopoeia (2015)” value is “slight moisture absorption”. Besides, the “Weight increase of 80% relative humidity” value in data set [2] is on record as 1.53%. Also, the “Weight increase of 95% relative humidity” value in data set [2] came out at 4.90%. Also, in data set [6], the “Particle sizes of the particles” value is on record as “homogeneous”. For the same compound, the Solubility in data set [4] (FaSSIF (pH = 6.5), 1 h) was 9 µg/mL (≈ 35.8 µM); in data set [4] (FaSSIF (pH = 6.5), 4 h), 17 µg/mL (≈ 67.7 µM); in data set [4] (FaSSIF (pH = 6.5), 24 h), 13 µg/mL (≈ 51.8 µM); in data set [4] (FeSSIF (pH = 5.0), 1 h), 62 µg/mL (≈ 247 µM); in data set [4] (FeSSIF (pH = 5.0), 4 h), 61 µg/mL (≈ 243 µM); in data set [4] (FeSSIF (pH = 5.0), 24 h), 56 µg/mL (≈ 223 µM). In addition, the Solubility was determined as 6 µg/mL (≈ 23.9 µM) in data set [4] (H2O, 4 h); 4 µg/mL (≈ 15.9 µM) in data set [4] (H2O, 24 h); 31 µg/mL (≈ 123 µM) in data set [4] (SGF (pH = 1.8), 1 h); 27 µg/mL (≈ 108 µM) in data set [4] (SGF (pH = 1.8), 4 h); 26 µg/mL (≈ 104 µM) in data set [4] (SGF (pH = 1.8), 24 h). Further, the Solubility assessment result in data set [4] was “in line with medicinal requirements”.

Turning to `N#Cc1ccc(Oc2ccc3c(c2)COB3O)cc1` [Crystal form II, 4-[(1,3-dihydro-1-hydroxyl-2,1-benzoxaborolane-5-yl)oxy]benzonitrile], the “Particle size distribution (PSD pattern)” value in data set [1] is “homogeneous”. In data set [1], this compound displayed a D10 of 8.24 μm. For the same compound, in data set [1], the “D50 (median size)” value came out at 20.46 μm. The compound also gave a D90 in data set [1] of 40.42 μm. Besides, the “MV (average particle size as calculated in terms of the volume)” value in data set [1] was 23.13 μm. For the same compound, the “Moisture absorption characteristic according to Chinese Pharmacopoeia (2015)” value in data set [2] is “almost have no moisture absorption”. Further, the “Weight increase of 80% relative humidity” value in data set [2] was determined as 0.13%. For the same compound, the “Weight increase of 95% relative humidity” value in data set [2] is reported as 0.32%. Further, the “Particle sizes of the particles” value in data set [6] is listed as “homogeneous”. Moreover, in data set [3], the “Stability of the crystal form on storage” value is recorded as “maintain their stability”. Besides, the Solubility in data set [4] (FaSSIF (pH = 6.5), 1 h) came to 11 µg/mL (≈ 43.8 µM); in data set [4] (FaSSIF (pH = 6.5), 4 h), 5 µg/mL (≈ 19.9 µM); in data set [4] (FaSSIF (pH = 6.5), 24 h), 8 µg/mL (≈ 31.9 µM); in data set [4] (FeSSIF (pH = 5.0), 1 h), 18 µg/mL (≈ 71.7 µM); in data set [4] (FeSSIF (pH = 5.0), 4 h), 49 µg/mL (≈ 195 µM); in data set [4] (FeSSIF (pH = 5.0), 24 h), 55 µg/mL (≈ 219 µM). In addition, the Solubility in data set [4] (H2O, 1 h) turned out to be 3 µg/mL (≈ 11.9 µM); in data set [4] (H2O, 4 h) it was 1 µg/mL (≈ 3.98 µM); in data set [4] (H2O, 24 h) it was 6 µg/mL (≈ 23.9 µM); in data set [4] (SGF (pH = 1.8), 1 h) it was 10 µg/mL (≈ 39.8 µM); in data set [4] (SGF (pH = 1.8), 4 h) it was 26 µg/mL (≈ 104 µM); in data set [4] (SGF (pH = 1.8), 24 h), 15 µg/mL (≈ 59.7 µM). Besides, the Solubility assessment result in data set [4] is reported as “in line with medicinal requirements”.

The record behind these values is patent US11773113B2, “Crystal forms of crisaborole in free form and preparation method and use thereof” (Anacor Pharmaceuticals, Inc., priority 2016, dated 2023).
